Where “and” joins values, the source holds several entries; their conditions need not be identical. Equal values may be shown once.
Assays:
[1] = system: CRAF; design: method as in PMID 33355204; conditions: purified CRAF; reaction conditions not provided; cited from earlier work
[2] = target: BRAF^WT (Homo sapiens, UniProt P15056); assay: TR-FRET kinase inhibition assay (MEK1 activation loop phosphorylation), BRAF^WT dimer
[3] = target: CRAF^WT (Homo sapiens, UniProt P04049); assay: TR-FRET kinase inhibition assay (MEK1 activation loop phosphorylation), CRAF^WT dimer
[4] = target: T1, ARAF^SSDD (Homo sapiens, UniProt P10398, G300S/Y301D/Y302D); assay: TR-FRET kinase inhibition assay (MEK1 activation loop phosphorylation), ARAF^SSDD dimer; conditions: for Hill slope: four-parameter fit, ARAF^SSDD 10 nM, ATP 200 μM
T1 sequence (P10398 274-606 G300S/Y301D/Y302D): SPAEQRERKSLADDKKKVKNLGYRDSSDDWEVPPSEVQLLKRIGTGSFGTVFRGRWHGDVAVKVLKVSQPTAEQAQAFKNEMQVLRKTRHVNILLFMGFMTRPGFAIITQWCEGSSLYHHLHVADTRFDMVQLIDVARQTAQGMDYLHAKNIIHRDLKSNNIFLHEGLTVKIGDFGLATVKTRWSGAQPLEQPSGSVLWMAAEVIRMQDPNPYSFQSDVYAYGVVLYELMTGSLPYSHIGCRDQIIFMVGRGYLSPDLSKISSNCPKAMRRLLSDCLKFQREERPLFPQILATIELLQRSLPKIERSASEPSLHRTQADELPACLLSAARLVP

[5] = target: CRAF^SSDD (Homo sapiens, UniProt P04049, Y340D/Y341D); assay: TR-FRET kinase inhibition assay (MEK1 activation loop phosphorylation), CRAF^SSDD dimer
[6] = target: BRAF^V600E (Homo sapiens, UniProt P15056, V600E); assay: TR-FRET kinase inhibition assay (MEK1 activation loop phosphorylation), BRAF^V600E monomer
[7] = design: method as in PMID 28082416, PMID 25792358; conditions: cited from earlier work

Row | SMILES | IC50 [1] | IC50 [2] | Ki [2] | Hill slope ([2]; four-parameter fit, BRAF^WT 1 nM, ATP 200 μM) | Ki [3] | IC50 ([3]; IC50, CRAF^WT 4 nM, ATP 200 μM, WT MEK1 substrate 250 nM, mean ± SD) | Hill slope ([3]; four-parameter fit, CRAF^WT 4 nM, ATP 200 μM) | IC50 [4] | Ki [4] | Hill slope [4] | IC50 [5] | Ki [5] | Hill slope ([5]; four-parameter fit, CRAF^SSDD 1 nM, ATP 200 μM) | IC50 [6] | Ki [6] | Hill slope ([6]; four-parameter fit, BRAF^V600E 1 nM, ATP 200 μM) | Brain penetration [7] | Inhibition of ARAF^SSDD at highest inhibitor concentration ([4]; 10 μM, the highest inhibitor concentration achievable in this assay)
1 | Cc1ccc(NC(=O)c2ccnc(C(F)(F)F)c2)cc1-c1cc(OCCO)nc(N2CCOCC2)c1 [Naporafenib, N-(3-(2-(2-Hydroxyethoxy)-6-morpholinopyridin-4-yl)-4-methylphenyl)-2-(trifluoromethyl)isonicotinamide] | 0.07 nM | 13.4 ± 0.3 nM | 0.13 ± 0.08 nM | −2.73 ± 0.23 | 0.04 ± 0.03 nM | 3.7 nM and 3.66 nM | −2.57 ± 0.65 | 414 ± 186 nM | 5.71 ± 2.97 nM | −0.78 ± 0.05 | 3.64 ± 0.36 nM | 0.01 ± 0.001 nM | −3.03 ± 0.73 | 49.2 ± 3 nM | 2.04 ± 0.83 nM | −0.96 ± 0.09 |  | 
2 | C[C@@H](NC(=O)c1ncnc(N)c1Cl)c1ncc(C(=O)Nc2cc(C(F)(F)F)c(Cl)cn2)s1 [Tovorafenib] |  |  |  |  |  |  |  | > 3000 nM | > 40 nM | −1.12 ± 0.42 |  |  |  |  |  |  | brain-penetrant | did not completely inhibit

From PMC10149214 (The Journal of Biological Chemistry, 2023)
